Data taken from patent US20160039852A1, “THERAPEUTIC USES OF BISPHOSPHONATES” (THE UNIVERSITY OF SHEFFIELD, priority 2013, published 2016).

Legend:
[1] = test system: murine tissues; experiment: Immuno-staining of γH2AX in murine tissue following irradiation; format: in vivo, C57BL6/J mice; conditions: 3Gy irradiation, Zol 125 μg/kg i.p. for 3 days, 12 h post irradiation
Source text: Cells were viewed using in an Inverted Zeiss LSM 510 NLO microscope equipped with Argon (Ar) laser (488 nm) 30 mW to image the fluorescent marker FITC and UV lamp to image DAPI stained nuclei.

[2] = test system: unprenylated Rap1A; experiment: Western blot of unprenylated Rap1A in hMSC; format: cell-based, human; conditions: hMSC exposed to increasing amounts of Zol
Description: (§1) Three times 10^6 hMSC were lysed in mammalian cell lysis buffer (Mammalian cell lysis kit, Sigma-Aldrich, Dorset, UK) containing 250 mM Tris-5 mM EDTA, 750 mM sodium chloride, 0.5% sodium dodecyl sulphate, 2.5% deoxycholic acid and 5% Igepal supplemented with 10 μl of Proteinase inhibitors cocktail (Sigma-Aldrich, Dorset, UK) containing 4-(2-aminoethyl) benzenesulfonyl fluoride (AEBSF), pepstatin A, bestatin, leupeptin, aprotinin and trans-epoxysuccinyl-L-leucyl-amido(4-guanidino)-butane (E-64) according to manufacturer instruction. Phosphatase inhibitor cocktail (Sigma) was also added when preparing lysates for the detection of AKT, pAKT, P70S6K, and p-P70S6K.
Protein lysates (50 μg) were diluted in equal volume of 2× Laemmli buffer (Gibco) containing Dithiothreitol (DTT, Sigma,UK). The samples were heated at 95° C. for 5 minutes and loaded on a 12% Tris-glycine gel. […] Detection was carried out using enhanced chemi-luminescence plus ECL reaction kit (GE Healthcare, Buckinghamshire, UK) and quantification of protein expression was carried out using image J software.
(FPPS) enzyme in the mevalonate pathway and thereby reducing prenylation of small GTPases, such as Rap, Rac, Rho, Rheb (FIG. 3A). […] To this end, levels of unprenylated Rap1A were measured in hMSC exposed to increasing amounts of Zol.

[3] = test system: normal human dermal fibroblasts; experiment: Human dermal fibroblast growth, cumulative population doublings; format: cell-based
Source text: Cultures (n=3) grown in PBS senesced after 17-21 population doublings (PDs) (square symbols) whereas cultures grown in presence of Zol were still proliferating after 27-34 PDs (triangle symbols).

[4] = test system: mTOR pathway; experiment: Western blot of mTOR pathway effectors in hMSC; format: cell-based, human
Description: as §1
Protein lysates (50 μg) were diluted in equal volume of 2× Laemmli buffer (Gibco) containing Dithiothreitol (DTT, Sigma,UK). The samples were heated at 95° C. for 5 minutes and loaded on a 12% Tris-glycine gel. After electro-blotting, membranes were blocked with 5% Bovine serum albumin (BSA) in 0.1% Tween 20 in PBS (PBS-T) for detection of glyceraldehyde-3-phosphate dehydrogenase (GAPDH) and 5% dry milk in PBS-T for detection of unprenylated RAP1A (Santacruz Biotechnology, Santa Cruz, USA). In case of P-AKT, P-70S6K membranes were blocked with 5%BSA in 1× tris buffered saline and 0.1% tween-20 (TBS-T), where for AKT and P70S6K membranes were blocked with 5% dry milk in TBS-T. All membranes were blocked for 2 hours at room temperature. The antibody sc1482 for the detection of RAP1A (Santacruz, USA) was diluted in TBS-T at 1:1000. Antibodies for the detection of AKT, P-AKT, P-70S6K AND PP70S6K, (Cell Signalling Technologies, USA) were diluted at 1:1000. GAPDH antibody (Abcam, Cambridge) was diluted at 1:30000. […] Detection was carried out using enhanced chemi-luminescence plus ECL reaction kit (GE Healthcare, Buckinghamshire, UK) and quantification of protein expression was carried out using image J software.
To test this, the inventors assessed the phosphorylation state of two effectors downstream of TORC1 and TORC2, p-P70S6K and pAKT (Ser473) respectively (FIG. 7A), in hMSC in presence or absence of Zol. […]

[5] = test system: unprenylated RAP1A; experiment: Unprenylation (unprenylated RAP1A) in murine tissues following treatment; format: in vivo, C57BL6/J mice; conditions: Zol 125 μg/kg, i.p., 3 days, n=6 mice/group
Description: For in vivo murine experiments C57BL6/J mice aged 8-10 weeks were used. All animals were housed in a conventional, non- specific pathogen free (SPF), mouse facility at the Medical School, University of Sheffield. Mice were fed on a commercially prepared pelleted diet and given water ad libitum. A minimum of 6 mice were used in each experimental group. Depending on the experimental groups, mice were injected either with Zoledronate(single dose, 125 μg/kg) or PBS ip, and sacrificed for tissue collection 3 days after the injection. Snap-frozen tissues were lysed for protein extraction using a tissue homogenizer and mammalian cell lysis buffer containing phosphatase and protease inhibitors. Protein lysates were run on 12% Tris-glycine gels and assessed for unprenylated RAP1A detected by sc1482 antibody RAP1A (Santacruz, USA) at 1:1000 dilution and GAPDH at 1:10000 dilution as described earlier.

[6] = test system: intestinal crypt and villi; experiment: Murine intestine regeneration following irradiation; format: in vivo, C57BL6/J mice; conditions: Zol 125 μg/kg i.p. 3 days prior to 9Gy
Description: Mice (C57BL6/J) were injected with either Zoledronate (single dose, i.p.,125 μg/kg) or PBS. On day 3 post-injection, Mice were exosed to whole body irradiation (9Gy; n=3/group) using 137Cs Gamma source. Within 24 hours from irradiation systemic bone marrow transplantation was performed to prevent myelotoxicity. mice were sacrificed 4 days post-irradiation for histological analysis of
Intestinal tissue. At the time of harvest this was divided with a scalpel into duodenum, ileum-jejunum, colon and rectum, and each region was further cut into 0.5 cm pieces that were placed in histological cassettes and stored in 70% ethanol prior to embedding. Tissues were paraffin embedded and sectioned at 3-5 μm thickness and mounted onto […] coated glass microscope slides. The slides were de-waxed in xylene (BDH, Leister, UK) and rehydrated by passing through a series of ethanol dilutions. The nuclei were stained by placing in Gill's haematoxylin (Sigma, Poole, UK), washed with water followed by staining of cytoplasm in alcoholic eosin (Sigma, Poole, UK) and washed. Slides were dehydrated through a series of graded alcohols and cleared in xylene for 3 minutes prior to mounting with DPX and coverslip to examine under microscope. Stained tissue sections were scanned on the Aperio Slide Scanner (Leica Biosystems, Newcastle, UK). To obtain villi length and crypt depth, images were analysed on the Aperio ImageScope Software (v11.2.0.780) and using the ruler tool, measurements were taken on a surface of 0.525 mm^2 at 3 different levels.

[7] = hMSC exposed to Zol (1 μM) for 72 h, n=3
[8] = assessed 4 days later, n=3/group

Structure (SMILES): O=P(O)(O)C(O)(Cn1ccnc1)P(=O)(O)O [Zoledronate]
- levels of DNA damage (γH2AX foci) in murine tissues [1]: decreased levels of DNA damage
- expression of unprenylated Rap1A [2]: increased expression
- lifespan of normal human dermal fibroblasts [3]: extends lifespan
- population doublings after which cultures were still proliferating ([3]; human dermal fibroblasts in presence of Zol, PBS cultures senesced after 17-21 PDs, n=3): 27-34 PDs
- mTOR signaling (p-mTOR, p-P70S6K, p-AKT, p-FOXO3A), FIG. 12 ([4]; hMSC exposed to Zol): inhibition of mTOR signaling
- p-P70S6K [4, 7]: significant decrease
- pAKT (Ser473) [4, 7]: significant decrease
- levels of Rap1A unprenylation in murine tissues [5]: increased levels of Rap1A unprenylation
- protection of intestinal crypt and villi following irradiation [6]: protects intestinal crypt and villi
- intestinal crypt depth [6, 8]: improved
- villi length [6, 8]: improved
